Tests used:
[1] = system: IL-6 secretion in 3T3-L1 adipocytes; assay: IL-6 secretion in t10-CLA-stimulated 3T3-L1 adipocytes; assay type: cell-based, murine
Protocol: The 3T3-L1 murine fibroblast model as used in Example 4 was used in this experiments. Test materials were added four hours prior to the addition of t10-CLA at a concentration of 50 μM. Following overnight incubation, the supernatant media were sampled for determination of IL-6 and adiponectin. The IL-6 secreted into the medium in response to […] stimulation was quantified using the Quantikine® Mouse IL-6 Immunoassay kit with no modifications (R&D Systems, Minneapolis, Minn.). […] All supernatant media samples were diluted 1:30 for quantification. Test materials and were assayed in duplicate, while solvent controls were replicated eight times. IL-6 and adiponectin secretion were represented relative to the IL-6 and adiponectin secretion of the t10-CLA only controls as the IL-6 and adiponectin index and differences among the means were analyzed by the student's t-test assuming a five percent probability of a type I error (Excel; Microsoft, Redmond, Wash.).

[2] = system: adiponectin secretion in 3T3-L1 adipocytes; assay: Adiponectin secretion in t10-CLA-stimulated 3T3-L1 adipocytes; assay type: cell-based, murine
Protocol: The 3T3-L1 murine fibroblast model as used in Example 4 was used in this experiments. Test materials were added four hours prior to the addition of t10-CLA at a concentration of 50 μM. Following overnight incubation, the supernatant media were sampled for determination of IL-6 and adiponectin. The adiponectin secreted into the medium was quantified using the Mouse Adiponectin Quantikine® Immunoassay kit with no modifications (R&D Systems, Minneapolis, Minn.). […] Test materials and were assayed in duplicate, while solvent controls were replicated eight times. IL-6 and adiponectin secretion were represented relative to the IL-6 and adiponectin secretion of the t10-CLA only controls as the IL-6 and adiponectin index and differences among the means were analyzed by the student's t-test assuming a five percent probability of a type I error (Excel; Microsoft, Redmond, Wash.).

[3] = system: Caco-2 monolayers; assay: t10-CLA-induced loss of TEER in Caco-2 monolayers; assay type: cell-based, human; conditions: t10-CLA 50 μM control = 100; μg TQ equivalents/mL: Thymoquinone 5.0, NS8 0.11, NS9 0.99, NS10 0.012, NSSpent#2 0.0005; NSSpent#1 5 μg/mL
Description: The protocol for growing and differentiation the human Caco-2 colon andenocarcinoma cells was a modification of Protocol 3 as described by Yamashita et al. [[…]., and Furuyama, Y. 2002) New and better protocols for a short-term Caco-2 cell culture system, J Pharm Sci 91, 669-679]. Caco-2 Human Colon Adenocarcinoma cells were obtained from ATCC (Rockville, Md.; catalog #HTB-37) and maintained in a growth media: DMEM (Dulbecco's Modified Eagles Medium 1×) containing L-glutamine, glucose; Cellgro catalog #35-010CV with the following additions: (1) Penicillin (5,000 IU/mL)/Streptomycin (5,000 μg/mL) Cellgro catalog #30-001C1, (2) 10% FBS-Fetal Bovine Serum, Characterized; Hyclone catalog #SH30071.3, and (3) 1% NEAA-Non Essential Amino Acids; Cellgro catalog #25-025-CI; cells were cultured at 37 C in a humidified air-5% CO2 atmosphere in T175 flasks. BIOCOAT^R HTS Caco-2 Assay System kits (Becton Dickinson, N.J.; catalog #354801) consisting of 24-well fibrillar collagen coated inserts and feeder trays were used in all experiments and plated as follows. Media was removed from the T175 flasks and cells were washed with 10 mLs PBS (phosphate buffered saline 1× without Ca^++, without Mg^++; Cellgro #25-053-CI). […]

[4] = system: AMPK; assay: AMPK activation (pT172-AMPK) in C2C12 myocytes; assay type: cell-based, Mouse; conditions: 1 mM
Protocol: Mouse C2C12 myoblasts were obtained from American Type Culture Collection (Manassas, Va.), and were maintained in Dulbecco's modified Eagle's medium (DMEM) supplemented with 10% fetal bovine serum at 37° C. under a humidified atmosphere of 5% CO2.
C2C12 cells were seeded at an initial density of 6×10^4 cells/cm^2 in 24-well plates. For two days, the cells were allowed grow to reach confluence. Following confluence, the cells were forced to differentiate into myocytes by culturing in DMEM supplemented with 2% horse serum for seven days.
On Day 8 to 10 post differentiation, C2C12 myocytes were incubated in serum-free DMEM plus 0.5% BSA (bovine serum albumin) for three hours. […]
pT^172-AMPK was quantified using the Biosource AMPK Immunoassay Kit (Camarillo, Calif.) without modification. Protein content of the cell lysates was determined with the Active Motif fluorescent protein assay reagent (Carlsbad Calif., Hoefelschweiger, B. K., Duerkop, A., and Wolfbeis, O. S, Novel type of general protein assay using a chromogenic and fluorogenic amine-reactive probe. Anal Biochem 2005, 344, 122-9). A Packard Fluorocount spectrofluorometer (Model#BF 10000, Meridan, Conn.) was used for protein determination and a MEL312e BIO-KINETICS READER (Bio-Tek Instruments, Winooski, Vt.) was used for quantification of pT^172-AMPK. […]

[5] = t10-CLA 50 μM control = 100, μg TQ equivalents/mL: Thymoquinone 5.0, NS8 0.11, NS9 0.99, NS10 0.012, NSSpent#2 0.0005, NSSpent#1 5 μg/mL

`CCCCC/C=C\C=C\CCCCCCCCC(=O)O` (single isomer, unassigned) [t10-CLA, Trans-10,Cis12-Conjugated Linoleic Acid Isomer] was tested, and the “increase in IL-6 secretion relative to controls” value ([1]; 50 μM, overnight) was 8 fold, the “IL-6 Index” value [1, 5] was 100 ± 11 and the “reduction in adiponectin secretion relative to controls” value ([2]; 50 μM, overnight) was 65%. The “Adiponectin Index” value [2, 5] was 100 ± 14 and the “Relative Loss of TEER” value [3] was 100 ± 5.81.
`NC(=O)c1ncn([C@@H]2O[C@H](CO)[C@@H](O)[C@H]2O)c1N` [AICAR, 5-Aminoimidazole-4-carboxamide ribonucleoside] was tested, and the “increase of pT172-AMPK relative to DMSO negative controls” value ([4]; 30 min, average over ten independent assays (95% CI=1.26-2.21)) was 1.67 fold and the “activation of AMPK” value ([4]; in assays run with N. sativa supercritical CO2 extracts) was 1.45 fold.
